In ChEMBL document CHEMBL2040800 (J Med Chem, 2012):
Converted amounts (≈) assume the structure as drawn. The source made the active and inactive calls. The calls are words filed in the database; no cut-off is given here.

How the values were obtained:
[1] = AUC (0 to infinity) in Sprague-Dawley rat at 3.2 mg/kg, iv; assay type: ADME, organism-based; design: time infinity, dose 3.2 mg/kg, route intravenous; details: plasma
Plasmodium berghei [2] = experiment: Antimalarial activity against Plasmodium berghei ANKA expressing GFP infected in Sprague-Dawley rat assessed as mean survival days of host at 3 mg/kg, po administered as single dose; assay type: functional
[3] = Volume of distribution at steady state in Sprague-Dawley rat at 3.2 mg/kg, iv; assay type: ADME, organism-based; design: dose 3.2 mg/kg, route intravenous; details: plasma, read-out: Vdss
[4] = Toxicity in rabbit ventricular wedge assessed as change in […] at 2 uM; assay type: tissue-based, Oryctolagus cuniculus, Cardiac ventricle
Salmonella typhimurium = experiment: Genotoxicity in Salmonella typhimurium by Ames test; assay type: toxicity, organism-based; details: salmonella enterica subsp. enterica serovar typhimurium
[5] = Oral bioavailability in Sprague-Dawley rat at 20.2 mg/kg; assay type: ADME, organism-based; details: in vivo
Plasmodium berghei [6] = experiment: Antimalarial activity against Plasmodium berghei ANKA expressing GFP infected in Sprague-Dawley rat assessed as mean survival days of host at 50 mg/kg, po administered as 4 doses; assay type: functional
[7] = Kinetic solubility of the compound in phosphate buffer after 30 mins by nephelometry at pH 6.5; assay type: physicochemical; details: read-out: Kinetic_solubility
Plasmodium berghei [8] = experiment: Antimalarial activity against Plasmodium berghei ANKA expressing GFP infected in Sprague-Dawley rat assessed as total cure from parasite at 30 mg/kg, po administered as single dose measured on day 30 post-infection by flow cytometry; assay type: functional, organism-based; design: dose 30 mg/kg
Plasmodium berghei [9] = experiment: Antimalarial activity against Plasmodium berghei ANKA expressing GFP infected in Sprague-Dawley rat assessed as total cure from parasite at 100 mg/kg, po administered as single dose measured on day 30 post-infection by flow cytometry; assay type: functional, organism-based; design: dose 100 mg/kg
[10] = Partition coefficient, log D of the compound at pH 7.4 by phase gradient HPLC analysis; assay type: physicochemical; details: octanol/water
[11] = Total plasma clearance in Sprague-Dawley rat at 3.2 mg/kg, iv; assay type: ADME, organism-based; design: dose 3.2 mg/kg, route intravenous
Cytochrome P450 2C19 = Cytochrome P450 2C19 (Homo sapiens, UniProt P33261); experiment: Inhibition of CYP2C19-mediated (S)-mephenytoin 4'-hydroxylation in human liver microsomes; assay type: ADME, Microsome
Sequence of Cytochrome P450 2C19 (P33261 whole entry): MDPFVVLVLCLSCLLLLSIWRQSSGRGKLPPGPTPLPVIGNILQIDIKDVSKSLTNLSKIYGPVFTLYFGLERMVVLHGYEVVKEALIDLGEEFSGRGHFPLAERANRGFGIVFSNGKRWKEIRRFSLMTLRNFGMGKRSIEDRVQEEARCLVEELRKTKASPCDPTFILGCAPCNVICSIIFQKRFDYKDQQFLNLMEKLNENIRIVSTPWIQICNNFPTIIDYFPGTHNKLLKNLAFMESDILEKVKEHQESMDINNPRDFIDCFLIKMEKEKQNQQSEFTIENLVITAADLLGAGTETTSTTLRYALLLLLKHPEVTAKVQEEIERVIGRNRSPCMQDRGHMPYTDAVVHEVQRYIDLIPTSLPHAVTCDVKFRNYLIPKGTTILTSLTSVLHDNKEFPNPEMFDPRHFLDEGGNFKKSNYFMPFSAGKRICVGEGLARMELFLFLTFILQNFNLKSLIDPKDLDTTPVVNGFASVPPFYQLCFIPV

[12] = Intrinsic clearance in human liver microsomes at 1 uM up to 60 mins; assay type: ADME, Microsome; details: read-out: CLH
Plasmodium berghei [13] = experiment: Antimalarial activity against Plasmodium berghei ANKA expressing GFP infected in Sprague-Dawley rat assessed as mean survival days of host at 10 mg/kg, po administered as single dose; assay type: functional
Cytochrome P450 3A4/3A5 = Cytochrome P450 3A4/3A5 (Homo sapiens, UniProt P08684+P20815); experiment: Inhibition of CYP3A4/CYP3A5-mediated testosterone 6beta-hydroxylation in human liver microsomes; assay type: ADME, Microsome
[14] = Toxicity in rabbit ventricular wedge assessed as change in QT at 2 uM; assay type: tissue-based, Oryctolagus cuniculus, Cardiac ventricle
Cytochrome P450 2D6 = Cytochrome P450 2D6 (Homo sapiens, UniProt P10635); experiment: Inhibition of CYP2D6-mediated dextromethorphan O-demethylation in human liver microsomes; assay type: ADME, Microsome
Sequence of Cytochrome P450 2D6 (P10635 whole entry): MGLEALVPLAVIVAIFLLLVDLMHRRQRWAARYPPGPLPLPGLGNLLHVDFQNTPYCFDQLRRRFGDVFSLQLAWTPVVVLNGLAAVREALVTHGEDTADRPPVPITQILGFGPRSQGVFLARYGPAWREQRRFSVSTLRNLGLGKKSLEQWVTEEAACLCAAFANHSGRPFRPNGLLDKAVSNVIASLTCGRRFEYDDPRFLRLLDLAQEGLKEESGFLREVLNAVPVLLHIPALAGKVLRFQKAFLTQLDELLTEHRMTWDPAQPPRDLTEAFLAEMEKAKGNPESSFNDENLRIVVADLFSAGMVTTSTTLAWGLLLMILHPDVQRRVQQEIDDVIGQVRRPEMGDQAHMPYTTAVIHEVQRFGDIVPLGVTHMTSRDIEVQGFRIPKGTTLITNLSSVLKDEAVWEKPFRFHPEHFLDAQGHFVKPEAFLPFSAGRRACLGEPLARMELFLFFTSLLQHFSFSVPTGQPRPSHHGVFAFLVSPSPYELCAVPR

[15] = Apparent terminal half life in Sprague-Dawley rat at 20.2 mg/kg, po; assay type: ADME, organism-based; design: dose 20.2 mg/kg, route oral; details: in vivo, read-out: betat1/2(app) (converted)
Plasmodium berghei [16] = experiment: Antimalarial activity against Plasmodium berghei ANKA expressing GFP infected in Sprague-Dawley rat assessed as reduction in parasitemia at 50 mg/kg, po administered as 4 doses measured on day 4 post-infection by flow cytometry; assay type: functional; design: scale not given: the % may be the effect or the level left
[17] = Cmax in Sprague-Dawley rat at 20.2 mg/kg, po; assay type: ADME, organism-based; design: dose 20.2 mg/kg, route oral; details: in vivo
[18] = AUC (0 to infinity) in Sprague-Dawley rat at 20.2 mg/kg, po; assay type: ADME, organism-based; design: time infinity, dose 20.2 mg/kg, route oral; details: plasma
Plasmodium berghei [19] = experiment: Antimalarial activity against Plasmodium berghei ANKA expressing GFP infected in Sprague-Dawley rat assessed as mean survival days of host at 30 mg/kg, po administered as single dose; assay type: functional
Plasmodium berghei [20] = experiment: Antimalarial activity against Plasmodium berghei ANKA expressing GFP infected in Sprague-Dawley rat assessed as reduction in parasitemia at 3 mg/kg, po administered as single dose measured on day 3 post-infection by flow cytometry; assay type: functional; design: scale not given: the % may be the effect or the level left
[21] = Solubility of the compound at 10 uM; assay type: physicochemical
Plasmodium falciparum = experiment: Antimalarial activity against chloroquine-resistant Plasmodium falciparum K1 after 24 hrs by hypoxanthine incorporation assay; assay type: functional, organism-based; details: K1, 24 h
Plasmodium berghei [22] = experiment: Antimalarial activity against Plasmodium berghei ANKA expressing GFP infected in po dosed Sprague-Dawley rat assessed as reduction in parasitemia administered as single dose measured on day 3 post-infection by flow cytometry; assay type: functional; details: 72 h
[23] = Apparent terminal half life in Sprague-Dawley rat at 3.2 mg/kg, iv; assay type: ADME, organism-based; design: dose 3.2 mg/kg, route intravenous; details: in vivo, read-out: betat1/2(app) (converted)
Cytochrome P450 1A2 = biological target: T1, Cytochrome P450 1A2 (Homo sapiens, UniProt P05177); experiment: Inhibition of CYP1A2-mediated phenacetin O-deethylation in human liver microsomes; assay type: ADME, Microsome
T1 sequence (P05177 whole entry): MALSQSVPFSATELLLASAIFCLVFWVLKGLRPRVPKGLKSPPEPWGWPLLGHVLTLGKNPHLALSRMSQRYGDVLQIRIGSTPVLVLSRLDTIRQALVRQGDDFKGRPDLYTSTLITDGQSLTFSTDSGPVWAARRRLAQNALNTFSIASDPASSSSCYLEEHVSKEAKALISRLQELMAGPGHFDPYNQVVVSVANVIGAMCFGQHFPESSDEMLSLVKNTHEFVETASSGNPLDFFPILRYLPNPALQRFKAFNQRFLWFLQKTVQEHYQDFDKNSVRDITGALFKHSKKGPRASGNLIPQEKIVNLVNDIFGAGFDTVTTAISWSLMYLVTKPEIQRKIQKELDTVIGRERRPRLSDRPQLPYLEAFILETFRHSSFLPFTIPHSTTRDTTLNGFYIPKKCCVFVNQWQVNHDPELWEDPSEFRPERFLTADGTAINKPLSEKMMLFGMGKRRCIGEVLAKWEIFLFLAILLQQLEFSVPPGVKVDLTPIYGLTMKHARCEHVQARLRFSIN

L6 = experiment: Cytotoxicity against rat L6 cells after 72 hrs by alamar blue assay; assay type: cell-based; details: l6, 72 h
Plasmodium berghei [24] = experiment: Antimalarial activity against Plasmodium berghei ANKA expressing GFP infected in Sprague-Dawley rat assessed as reduction in parasitemia at 100 mg/kg, po administered as single dose measured on day 3 post-infection by flow cytometry; assay type: functional; design: scale not given: the % may be the effect or the level left
[25] = Plasma protein binding in human by reverse phase gradient HPLC analysis; assay type: ADME, cell-free; details: read-out: PPB (converted)
[26] = Tmax in Sprague-Dawley rat at 20.2 mg/kg, po; assay type: ADME, organism-based; design: dose 20.2 mg/kg, route oral; details: in vivo
Plasmodium berghei [27] = experiment: Antimalarial activity against Plasmodium berghei ANKA expressing GFP infected in Sprague-Dawley rat assessed as total cure from parasite at 50 mg/kg, po administered as 4 doses measured on day 30 post-infection by flow cytometry; assay type: functional, organism-based; design: dose 50 mg/kg
[28] = Toxicity in rabbit ventricular wedge assessed as change in TP-e at 2 uM; assay type: tissue-based, Oryctolagus cuniculus, Cardiac ventricle
[29] = Half life in human liver microsomes at 1 uM; assay type: ADME, Microsome
Cytochrome P450 2C9 = Cytochrome P450 2C9 (Homo sapiens, UniProt P11712); experiment: Inhibition of CYP2C9-mediated tolbutamide methylhydroxylation in human liver microsomes; assay type: ADME, Microsome
Sequence of Cytochrome P450 2C9 (P11712 whole entry): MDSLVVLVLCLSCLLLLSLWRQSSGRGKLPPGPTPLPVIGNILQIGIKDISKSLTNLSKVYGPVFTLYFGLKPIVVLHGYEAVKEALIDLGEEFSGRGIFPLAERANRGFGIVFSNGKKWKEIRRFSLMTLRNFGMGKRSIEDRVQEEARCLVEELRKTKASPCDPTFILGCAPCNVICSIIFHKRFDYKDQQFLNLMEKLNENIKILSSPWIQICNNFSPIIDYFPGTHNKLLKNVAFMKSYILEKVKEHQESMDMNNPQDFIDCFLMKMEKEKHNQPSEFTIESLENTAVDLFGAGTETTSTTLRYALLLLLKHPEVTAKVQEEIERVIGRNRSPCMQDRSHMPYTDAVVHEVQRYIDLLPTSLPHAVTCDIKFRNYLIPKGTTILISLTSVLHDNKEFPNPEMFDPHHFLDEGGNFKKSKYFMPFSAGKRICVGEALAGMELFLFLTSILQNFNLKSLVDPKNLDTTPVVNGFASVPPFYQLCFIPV

Plasmodium berghei [30] = experiment: Antimalarial activity against Plasmodium berghei ANKA expressing GFP infected in Sprague-Dawley rat assessed as reduction in parasitemia at 30 mg/kg, po administered as single dose measured on day 3 post-infection by flow cytometry; assay type: functional; design: scale not given: the % may be the effect or the level left
Plasmodium berghei [31] = experiment: Antimalarial activity against Plasmodium berghei ANKA expressing GFP infected in Sprague-Dawley rat assessed as mean survival days of host at 100 mg/kg, po administered as single dose; assay type: functional
Plasmodium berghei [32] = experiment: Antimalarial activity against Plasmodium berghei ANKA expressing GFP infected in Sprague-Dawley rat assessed as reduction in parasitemia at 10 mg/kg, po administered as single dose measured on day 3 post-infection by flow cytometry; assay type: functional; design: scale not given: the % may be the effect or the level left

Structure (SMILES): CS(=O)(=O)c1ccc(-c2cnc(N)c(-c3ccc(C(F)(F)F)nc3)c2)cc1 [MMV-048]
- AUC(0-inf) [1]: 23.4 µM·h
- MSD (Plasmodium berghei [2]): 8 days
- Vd [3]: 2.7 L/kg
- Activity [4]: Non-toxic
- Activity (Salmonella typhimurium): Non-toxic
- bioavailability [5]: 51%
- MSD (Plasmodium berghei [6]): >30 days
- solubility kinetic at 0.5 h [7]: 6.3 µg/mL (≈ 16 µM)
- Activity (Plasmodium berghei [8]): Active
- Activity (Plasmodium berghei [9]): Active
- chromatographic logD [10]: 2.6
- clearance [11]: 6.5 mL/min/kg
- INH (Cytochrome P450 2C19): > 20 µM
- microsomal CLint at 1 µM [12]: < 1.4 µL/min/mg
- MSD (Plasmodium berghei [13]): 13 days
- INH (Cytochrome P450 3A4/3A5): > 20 µM
- Activity [14]: Non-toxic
- INH (Cytochrome P450 2D6): > 20 µM
- half-life [15]: 8.5 h
- Activity (Plasmodium berghei [16]): 99.7%
- Cmax [17]: 8 µM
- AUC(0-inf) [18]: 74.2 µM·h
- MSD (Plasmodium berghei [19]): >30 days
- Activity (Plasmodium berghei [20]): 98%
- solubility [21]: Insoluble
- IC50 (Plasmodium falciparum): 25 nM
- ED50 (Plasmodium berghei [22]): 0.83 mg/kg
- ED90 (Plasmodium berghei [22]): 1.7 mg/kg
- half-life [23]: 7.3 h
- INH (Cytochrome P450 1A2): > 20 µM
- Activity (L6): 251.4 µM
- Activity (Plasmodium berghei [24]): 99.5%
- fraction unbound [25]: 0.139
- Tmax [26]: 2.5 h
- Activity (Plasmodium berghei [27]): Active
- Activity [28]: Non-toxic
- half-life at 1 µM [29]: > 8.33 h
- INH (Cytochrome P450 2C9): > 20 µM
- Activity (Plasmodium berghei [30]): 99.3%
- MSD (Plasmodium berghei [31]): >30 days
- Activity (Plasmodium berghei [32]): 98%
